This note sets out measurements from PMC3251870 (British Journal of Cancer, 2011).

The subject of experiment [1] is OCM1 uveal melanoma cells. Kind of experiment: MTS cell viability, OCM1. It is filed as cell-based, human. The note with it: Homo sapiens, 96 h, 4 days. The method, then:
(§1) All human cancer cell lines were maintained in RPMI media supplemented with 5% (lung and breast cancer cells) or 10% (melanoma cells) fetal bovine serum. […] Human mammary epithelial cells immortalised with telomerase were maintained in complete MEGM media from Cambrex (East Rutherford, NJ, USA).
(§2) Absorbance at 490 and 650 nm (reference wavelength) was measured by a Spectra Max (Molecular Devices, Sunnyvale, CA, USA) or a FlouroStar Omega (BMG Biosciences, Ortenberg, Germany) plate reader. Data were normalised to the untreated controls (100% viability). Each cell line was tested in 1–5 independent assays, each containing 4–8 replicates. IC50 values were calculated using DIVISA, a high-throughput software, developed in-house (manuscript in preparation), for storing and analysing drug sensitivity assays. Dose–response curves were plotted using a non-linear regression model and IC50s were determined from the fitted curves.

Experiment [2] deals with OMM2.3 uveal melanoma cells. Kind of experiment: MTS cell viability, OMM2.3. It is filed as cell-based, human. The note with it: Homo sapiens, 96 h, 4 days. The protocol: as §1, §2
Experiment [3] deals with OCM3 uveal melanoma cells. The experiment can be described thus: MTS cell viability, OCM3. It is filed as cell-based, human. The following applies: Homo sapiens, 96 h, 4 days. The method, then:
as §1, §2

Experiment [4] concerns Melanocytes. Kind of experiment: MTS cell viability, primary melanocytes. It is filed as cell-based, human. The following applies: Homo sapiens, Melanocyte, 96 h, 4 days. The protocol:
as §1, §2

In experiment [5] the test system is HBEC34KT human bronchial epithelial cells. The experiment can be described thus: MTS cell viability, HBEC34KT. The note with it: Homo sapiens, Epithelial cell, 96 h, HBEC34KT, 4 days. It is filed as cell-based. The protocol: as §1, §2
In experiment [6] the test system is HBEC30KT human bronchial epithelial cells. The experiment can be described thus: MTS cell viability, HBEC30KT. The note with it: Homo sapiens, Epithelial cell, 96 h, HBEC30KT, 4 days. It is filed as cell-based. The protocol: as §1, §2
Experiment [7] has as its system patient-matched human bronchial epithelial cells/human non-small lung cancer cells (HBEC30KT/HCC4017, HBEC34KT/HCC4018). The experiment can be described thus: Cancer vs normal selectivity in patient-matched pairs (MTS viability). It is filed as cell-based. The protocol: as §1, §2
Experiment [8] deals with HCC4018 lung cancer cells. The experiment can be described thus: MTS cell viability, HCC4018. The following applies: Homo sapiens, 96 h; HCC4018, MTS, 4 days. It is filed as cell-based, human. The method, then:
as §1, §2

For experiment [9], the system named is SKMEL2 melanoma cells. The experiment can be described thus: MTS cell viability, SKMEL2. It is filed as cell-based, human. The following applies: SK-MEL2, MTS, 4 days. The method, then:
as §1, §2

Experiment [10] has as its system HCC4017 lung cancer cells. Kind of experiment: MTS cell viability, HCC4017. It is filed as cell-based, human. The note with it: Homo sapiens, 96 h; HCC4017, MTS, 4 days. The method, then: as §1, §2
For experiment [11], the system named is LOXIMVI melanoma cells. The experiment can be described thus: MTS cell viability, LOXIMVI. It is filed as cell-based, human. The following applies: LOXIMVI, 4 days. The protocol: as §1, §2
Experiment [12] relates to MEL270 uveal melanoma cells. The experiment can be described thus: MTS cell viability, MEL270. It is filed as cell-based, human. The following applies: Homo sapiens, 96 h, 4 days. The method, then:
as §1, §2

Experiment [13] deals with H1437 cells. The experiment can be described thus: MTS cell viability, H1437. It is filed as cell-based, human. The following applies: cell viability, Supplementary Figure 2D. The protocol: as §1, §2
Experiment [14] has as its system HCC15 cells. The experiment can be described thus: MTS cell viability, HCC15. The note with it: cell viability, Supplementary Figure 2C. It is filed as cell-based, human. The protocol:
as §1, §2

The subject of experiment [15] is H2073 cells. Kind of experiment: MTS cell viability, H2073. The note with it: H2073 cells, verapamil plus depsipeptide. It is filed as cell-based, human. The method, then: as §1, §2
For experiment [16], the system named is H1993 cells. Kind of experiment: MTS cell viability, H1993. It is filed as cell-based, human. The following applies: H1993 cells, verapamil plus depsipeptide. The protocol: as §1, §2

Regarding `CCC(=O)CCCCC[C@@H]1NC(=O)[C@H]2CCCCN2C(=O)[C@H]([C@@H](C)CC)NC(=O)[C@H](Cc2cn(OC)c3ccccc23)NC1=O` [Apicidin, apicidin], the half-inhibitory concentration (IC50) was found to be 700 nM in experiment [1]; 400 nM in experiment [2]; 4000 nM in experiment [3]; 200 nM in [4]; 790 nM in experiment [5]; 90 nM in experiment [6]. In addition, the figures for the IC50 in experiment [8], in [10] and in [12] were 30 nM, 120 nM and 650 nM, respectively. Also, the “selectivity for cancer vs normal within a matched pair” value in [7] (one matched lung cancer/HBEC pair) is listed as “no selectivity”; in experiment [7] (second pair of lines) it was about 25 fold. For the same compound, the “sensitivity (position in drug sensitivity profile of melanoma panel)” value in experiment [9] is “on the sensitive side”; in experiment [11], “sensitive”.

On to `Nc1ccccc1NC(=O)c1ccc(CNC(=O)OCc2cccnc2)cc1` [MS-275], for which, in experiment [13], the “relative potency against H1437 vs HCC15 cells” value is “more potent against H1437 cells than HCC15 cells”.

On to `O=C(CCCCCN1C(=O)c2cccc3cccc(c23)C1=O)NO` [Scriptaid], for which, in [14], the “relative sensitivity of HCC15 compared with H1437 cells” value is “more sensitive”.

With `COc1ccc(CCN(C)CCCC(C#N)(c2ccc(OC)c(OC)c2)C(C)C)cc1OC` (centres unmarked) [verapamil], the “restoration of sensitivity to depsipeptide by MDR1 inhibition” value in experiment [15] is given as “partly re-sensitised”; in experiment [16], “not affecting”.
